How the values were obtained:
[1] = target: T1, KRAS G12D (Homo sapiens, UniProt P01116, G12D); experiment: KRAS Nucleotide Exchange Assay (SOS1-mediated), G12D; type: biochemical; details: HTRF, 20 nM KRAS, 12.5 nM SOS1, 60 minutes preincubation, approximately 25 minutes reaction
T1 construct: GST-tagged KRAS WT or mutant protein (amino acids 2-169)
Text: (§1) Test Example 1: KRAS Nucleotide Exchange Assay
(§2) Evaluation of the inhibitory effect of compounds on SOS1-mediated nucleotide exchange activity of KIRAS^WT, KRAS^G12D, KRAS^G12V, KRAS^G12C and KRAS^G13D mutants
(§3) The assay monitors SOS1 mediated exchange of KRAS bound unlabeled GDP to fluorescently labeled GTP. The detection is based on the transfer of energy between two fluorophores when they are in close proximity. Donor is the Tb cryptate labeled anti-GST antibody and acceptor is a DY-647P1 GTP.
(§4) • GST-tagged KRAS WT or mutant protein (amino acids 2-169), • SOS1 (amino acids 564-1049), • Labeled GTP (GTP-DY-647P1), • Assay Buffer (20 mM HEPES pH 7.4, 150 mM NaCl, 5 mM MgCl2, 1 mM DTT, 0.05% BSA, 0.0025% NP40)
(§5) • 1. KRAS protein was diluted with assay buffer to reach 1.5 times of the final concentration, then mixed with Tb cryptate anti-GST antibody and added at 10 μL to each assay well (all of the final concentration was 20 nM for KRAS^WT, KRAS^G12D, and KRAS^G12V) • 2. The compound was dissolved in DMSO and diluted to prepare 100 times of the final concentration. • 3. Compounds were dispensed into assay wells using an ECHO acoustic dispenser (Beckman), mixed gently with the KRAS/Ab mixture, and incubated for 60 minutes. • 4. SOS1 and labeled GTP were mixed, diluted to 3 times of the final concentration with assay buffer, and 5 μL of the solution was added to the assay well to initiate the reaction (final concentration of labeled GTP was […], final concentration of SOS1 was 7.5 nM in WT, 12.5 nM in G12D and 50 nM in G12V). Only assay buffer and labeled GTP were added to the blank well. • 5. The reaction was monitored at Ex/Em=(337/665; 337/620) using a Pherastar Plate Reader (BMG). • 6. HTRF signals were analyzed approximately 25 minutes after the start of the reaction (60 minutes reaction for G12V). • 7. Nucleotide exchange activity is expressed as a percentage difference compared to the DMSO reaction value, and the IC50 value was calculated based on the four-parameter logistic equation in GraphPad 4.0 software.

[2] = target: T2, KRAS G12V (Homo sapiens, UniProt P01116, G12V); experiment: KRAS Nucleotide Exchange Assay (SOS1-mediated), G12V; type: biochemical; details: HTRF, 20 nM KRAS, 50 nM SOS1, 60 minutes preincubation, 60 minutes reaction
T2 construct: GST-tagged KRAS WT or mutant protein (amino acids 2-169)
Text: as §1, §2, §3, §4, §5

[3] = target: T3, KRAS WT (Homo sapiens, UniProt P01116); experiment: KRAS Nucleotide Exchange Assay (SOS1-mediated), WT; type: biochemical; details: HTRF, 20 nM KRAS, 7.5 nM SOS1, 60 minutes preincubation, approximately 25 minutes reaction
T3 construct: GST-tagged KRAS WT or mutant protein (amino acids 2-169)
Text: as §1, §2, §3, §4
• 1. […] The reaction was monitored at Ex/Em=(337/665; 337/620) using a Pherastar Plate Reader (BMG). • 6. HTRF signals were analyzed approximately 25 minutes after the start of the reaction (60 minutes reaction for G12V). • 7. Nucleotide exchange activity is expressed as a percentage difference compared to the DMSO reaction value, and the IC50 value was calculated based on the four-parameter logistic equation in GraphPad 4.0 software.

[4] = test system: AsPC-1 cells; experiment: Cell Proliferation Assay, AsPC-1 (CellTiter-Glo 2.0 viability); type: cell-based; details: AsPC-1 pancreatic cancer (KRAS G12D mutation)
Method in brief: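 AsPC-1 (KRAS G12D, RPMI-1640) and SW480 (KRAS G12V, DMEM) cells in 10% FBS, 2000 cells/well, exposed to 10-point 3-fold compound dilutions for 72 h at 37 °C. Viability by CellTiter-Glo 2.0 luminescence (ATP). IC50 from sigmoidal dose-response fit.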

[5] = target: T4, KRAS G12C (Homo sapiens, UniProt P01116, G12C); experiment: KRAS Nucleotide Exchange Assay (SOS1-mediated), G12C; type: biochemical; details: HTRF, 60 minutes preincubation, approximately 25 minutes reaction
T4 construct: GST-tagged KRAS WT or mutant protein (amino acids 2-169)
Text: as §1, §2, §3, §4, §5

[6] = target: T5, KRAS G13D (Homo sapiens, UniProt P01116, G13D); experiment: KRAS Nucleotide Exchange Assay (SOS1-mediated), G13D; type: biochemical; details: HTRF, 60 minutes preincubation, approximately 25 minutes reaction
T5 construct: GST-tagged KRAS WT or mutant protein (amino acids 2-169)
Text: as §1, §2, §3, §4, §5

[7] = test system: SW480 cells; experiment: Cell Proliferation Assay, SW480 (CellTiter-Glo 2.0 viability); type: cell-based; details: Homo sapiens; SW480 colon cancer (KRAS G12V mutation); 72 hours
Protocol: Test Example 3: Cell Proliferation Assay
Cell viability testing of test compounds in AsPC-1 pancreatic cancer (KRAS G12D mutation) or SW480 colon cancer (KRAS G12V mutation) cells for 72 hours
The reference compound Staurosporine was purchased from Sigma-Aldrich (Saint Louis, MI), and CellTiter-Glo® 2.0 Luminescent cell viability assay reagent (cat #G9243) was purchased from Promega (Madison, WI). AsPC-1 and SW480 cell lines were purchased from American Type Culture Collection (Manassas, VA). AsPC-1 cells were cultured with RPMI-1640 (ATCC, cat #30-2001) and SW480 cells were cultured with DMEM (ATCC cat #30-2002).
A medium supplemented with 10% FBS (Sigma-Aldrich, cat #F2442) and 100 µg/mL of penicillin-streptomycin (Sigma-Aldrich, cat #P4333) was used. Cells were cultured at 37 °C in a humidified atmosphere of 5% CO2 and 95% air.
• 1. The test compound and reference compound, Staurosporine were dissolved in DMSO solution to prepare 20 mM (test compound) and 10 mM (control compound, Staurosporine) in the Source Plate and diluted with DMSO to 3-fold and 10 doses. • 2. From the Source Plate, 10 volumes of 125 nL test compound or 25 nL reference compound were dispensed into wells of a 384-well culture plate (VWR, cat #82050-076) using Echo 655. • 3. 25 μL of culture medium including 2000 AsPC-1 or SW480 cells was dispensed into each 384-well cell culture plate. • 4. Cells were cultured with the compound for 72 hours at 37 °C and 5% CO2 conditions. • 5. 25 μL of CellTiter-Glo 2.0 reagent was added to each well of the plate. • 6. The contents were mixed for 2 minutes on an orbital shaker, and the luminescence signal was stabilized at room temperature for 15 minutes. • 7. Luminescence signals were measured with an Envision 2104 Multilabel Reader (PerkinElmer, Santa Clara, CA), and the number of surviving cells was determined through quantification of ATP present in each culture. • 8. IC50 values were calculated based on the Sigmoidal dose-response equation in the GraphPad Prism 4 program.

T2 sequence (P01116 2-169 isoform P01116-2 G12V): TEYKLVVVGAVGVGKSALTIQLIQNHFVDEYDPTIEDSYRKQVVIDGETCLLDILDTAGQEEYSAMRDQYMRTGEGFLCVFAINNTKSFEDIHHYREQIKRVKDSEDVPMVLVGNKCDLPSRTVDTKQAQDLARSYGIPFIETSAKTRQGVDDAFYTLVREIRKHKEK
T1 sequence (P01116 2-169 isoform P01116-2 G12D): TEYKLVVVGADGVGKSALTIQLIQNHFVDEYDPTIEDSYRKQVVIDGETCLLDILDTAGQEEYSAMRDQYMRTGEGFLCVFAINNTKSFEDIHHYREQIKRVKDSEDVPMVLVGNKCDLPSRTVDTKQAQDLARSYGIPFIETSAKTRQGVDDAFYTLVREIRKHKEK
T5 sequence (P01116 2-169 isoform P01116-2 G13D): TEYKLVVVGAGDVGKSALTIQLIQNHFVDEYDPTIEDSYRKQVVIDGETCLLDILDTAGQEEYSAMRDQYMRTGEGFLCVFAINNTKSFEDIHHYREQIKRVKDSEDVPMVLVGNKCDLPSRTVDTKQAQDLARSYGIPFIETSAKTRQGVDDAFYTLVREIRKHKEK
T4 sequence (P01116 2-169 isoform P01116-2 G12C): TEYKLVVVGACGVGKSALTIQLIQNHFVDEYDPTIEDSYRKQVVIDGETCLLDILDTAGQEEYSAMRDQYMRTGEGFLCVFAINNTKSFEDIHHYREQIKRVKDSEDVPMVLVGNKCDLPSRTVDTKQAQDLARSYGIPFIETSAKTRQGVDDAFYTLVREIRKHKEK
T3 sequence (P01116 2-169 isoform P01116-2): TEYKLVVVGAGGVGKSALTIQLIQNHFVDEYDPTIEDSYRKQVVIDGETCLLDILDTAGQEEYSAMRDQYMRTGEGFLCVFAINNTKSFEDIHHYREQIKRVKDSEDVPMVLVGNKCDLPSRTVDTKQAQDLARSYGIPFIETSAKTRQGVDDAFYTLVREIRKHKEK

Work on CCc1c(F)ccc2cc(O)cc(-c3nc4c5c(nc(OC[C@@]67CCCN6C[C@H](F)C7)nc5c3F)N(CC3(N(C)C)CCC3)CCO4)c12 [Example 1, 4-(10-((1-(dimethylamino)cyclobutyl)methyl)-4-fluoro-2-(((2R,7aS)-2-fluorotetrahydro-1H-pyrrolizin-7a(5H)-yl)methoxy)-9,10-dihydro-8H-7-oxa-1,3,6,10-tetraazacyclohepta[de]naphthalen-5-yl)-5-ethyl-6-fluoronaphthalen-2-ol] yielded an IC50 [1] of 1.26 nM, an IC50 [2] of 33.4 nM and an IC50 [3] of 6.22 nM. For the same compound, the IC50 ([4]; Homo sapiens, ASPC1, 72 h) was over 10000 nM.
For C#Cc1c(F)ccc2cc(O)cc(-c3nc4c5c(nc(OC[C@@]67CCCN6C[C@H](F)C7)nc5c3F)N(C(C)c3cccnc3N)CCO4)c12 (stereo partly drawn) [Example 13, 4-(10-(1-(2-aminopyridin-3-yl)ethyl)-4-fluoro-2-(((2R,7aS)-2-fluorotetrahydro-1H-pyrrolizin-7a(5H)-yl)methoxy)-9,10-dihydro-8H-7-oxa-1,3,6,10-tetraazacyclohepta[de]naphthalen-5-yl)-5-ethynyl-6-fluoronaphthalen-2-ol], the IC50 [1] was 1.65 nM, the IC50 [2] was 1.38 nM and the IC50 [5] was 0.609 nM. It also gave an IC50 [6] of 3.69 nM, an IC50 ([4]; 72 hours) of under 1000 nM and an IC50 [7] of under 1000 nM.
CC(c1cccnc1N)N1CCOc2nc(-c3cc(O)cc4ccc(F)c(F)c34)c(F)c3nc(OC[C@@]45CCCN4C[C@H](F)C5)nc1c23 (stereo partly drawn) [Example 16, 4-(10-(1-(2-aminopyridin-3-yl)ethyl)-4-fluoro-2-(((2R,7aS)-2-fluorotetrahydro-1H-pyrrolizin-7a(5H)-yl)methoxy)-9,10-dihydro-8H-7-oxa-1,3,6,10-tetraazacyclohepta[de]naphthalen-5-yl)-5,6-difluoronaphthalen-2-ol] gave an IC50 [1] of 2.35 nM, an IC50 [2] of 2.3 nM and an IC50 [5] of 0.916 nM. The IC50 [6] was 4.94 nM, the IC50 ([4]; Homo sapiens, ASPC1, 72 h) was under 1000 nM and the IC50 [7] was under 1000 nM.

From patent US20260374781A1, “NOVEL TRIHETEROCYCLIC COMPOUNDS” (IDENCE CO., LTD., priority 2022, published 2026)
